# Results as given in patent US6777412B2 (priority 1990, dated 2004).
# Tests used:
# Format in all cases: in vivo
# Puccinia recondita = assay: Foliar fungal disease test on plants: Puccinia recondita (Pr); settings: 100 ppm active ingredient foliar spray plus root drench (approx. 40 ppm a.i. in dry soil), one or two days before inoculation
# Protocol: (§1) The compounds were tested against a variety of foliar fungal diseases of plants. The technique employed was as follows.
# (§2) The plants were grown in John Innes Potting Compost (No.1 or 2) in 4 cm diameter minipots. The test compounds were formulated either by bead milling with aqueous Dispersol T or as a solution in acetone or acetone/ethanol which was diluted to the required concentration immediately before use. For the foliage diseases, the formulations (100 ppm active ingredient except where otherwise indicated) were sprayed onto the foliage and applied to the roots of the plants in the soil. The sprays were applied to maximum retention and the root drenches to a final concentration equivalent to approximately 40 ppm a.i. in dry soil. Tween 20, to give a final concentration of 0.05%, was added when the sprays were applied to cereals.
# (§3) For most of the tests the compound was applied to the soil (roots) and to the foliage (by spraying) one or two days before the plant was inoculated with the disease. An exception was the test on Erysiphe graminis in which the plants were inoculated 24 hours before treatment. Foliar pathogens were applied by spray as spore suspensions onto the leaves of test plants. After inoculation, the plants were put into an appropriate environment to allow infection to proceed and then incubated until the disease was ready for assessment. The period between inoculation and assessment varied from four to fourteen days according to the disease and environment.
# (§4) The disease control vas recorded by the following grading:
# (§5) 3=trace-5% of disease on untreated plants
# (§6) 2=6-25% of disease on untreated plants
# (§7) 1=26-59% of disease on untreated plants
# (§8) 0=60-100% of disease on untreated plants
# Erysiphe graminis hordei = assay: Foliar fungal disease test on plants: Erysiphe graminis hordei (Egh); settings: 100 ppm active ingredient foliar spray plus root drench (approx. 40 ppm a.i. in dry soil); plants inoculated 24 hours before treatment
# Protocol: as §1, §2, §3, §4, §5, §6, §7, §8
# Egh Erysiphe graminis hordei
# Pyricularia oryzae = settings: 100 ppm active ingredient foliar spray plus root drench (approx. 40 ppm a.i. in dry soil), one or two days before inoculation
# Venturia inaequalis = assay: Foliar fungal disease test on plants: Venturia inaequalis (Vi); settings: 100 ppm active ingredient foliar spray plus root drench (approx. 40 ppm a.i. in dry soil), one or two days before inoculation
# Protocol: as §1, §2, §3, §4, §5, §6, §7, §8
# Plasmopara viticola = assay: Foliar fungal disease test on plants: Plasmopara viticola (Pv); settings: 100 ppm active ingredient foliar spray plus root drench (approx. 40 ppm a.i. in dry soil), one or two days before inoculation
# Protocol: as §1, §2, §3, §4, §5, §6, §7, §8
# [1] = tested on: Phytophthora infestans lycopersici; settings: 100 ppm active ingredient foliar spray plus root drench (approx. 40 ppm a.i. in dry soil), one or two days before inoculation
SMILES,"disease control grading, Pr (Puccinia recondita) (Puccinia recondita)","disease control grading, Egh (Erysiphe graminis hordei) (Erysiphe graminis hordei)","disease control grading, Po (Pyricularia oryzae) (Pyricularia oryzae)","disease control grading, Vi (Venturia inaegualis) (Venturia inaequalis)","disease control grading, Pv (Plasmopara viticola) (Plasmopara viticola)","disease control grading, Pil (Phytophthora infestans lycopersici) [1]"
CO/C=C(/C(=O)OC)c1ccccc1Oc1cc(OC(c2ccccc2)C(F)(F)F)ncn1 (stereo not shown) [371 of Table I],4 (4=no disease),4 (4=no disease),4 (4=no disease),4 (4=no disease),4 (4=no disease),0 (0=60-100% of disease on untreated plants)
CO/C=C(/C(=O)OC)c1ccccc1Oc1cc(OCCCc2ccccc2[N+](=O)[O-])ncn1 [361 of Table I],4 (4=no disease),4 (4=no disease),4 (4=no disease),4 (4=no disease),4 (4=no disease),4 (4=no disease)
CO/C=C(/C(=O)OC)c1ccccc1Oc1cc(OCCc2ccccc2OC)ncn1 [365 of Table I],4 (4=no disease),4 (4=no disease),4 (4=no disease),4 (4=no disease),4 (4=no disease),4 (4=no disease)
CO/C=C(/C(=O)OC)c1ccccc1Oc1cc(Nc2ccccc2OC)ncn1 [380 of Table I],4 (4=no disease),4 (4=no disease),4 (4=no disease),4 (4=no disease),4 (4=no disease),3 (3=trace-5% of disease on untreated plants)
CO/C=C(/C(=O)OC)c1ccccc1Oc1cc(OCCc2c(Cl)cccc2Cl)ncn1 [373 of Table I],4 (4=no disease),4 (4=no disease),4 (4=no disease),4 (4=no disease),4 (4=no disease),3 (3=trace-5% of disease on untreated plants)
CO/C=C(/C(=O)OC)c1ccccc1Oc1cc(Nc2ccccc2O)ncn1 [379 of Table I],3 (3=trace-5% of disease on untreated plants),0 (0=60-100% of disease on untreated plants),0 (0=60-100% of disease on untreated plants),,4 (4=no disease),0 (0=60-100% of disease on untreated plants)
CO/C=C(/C(=O)OC)c1ccccc1Oc1cc(OCCc2ccccc2)ncn1 [96 of Table I],4 (4=no disease),4 (4=no disease),3 (3=trace-5% of disease on untreated plants),,4 (4=no disease),4 (4=no disease)
CO/C=C(/C(=O)OC)c1ccccc1Oc1cc(Sc2ccccc2C#N)ncn1 [134 of Table I],4 (4=no disease),4 (4=no disease),2 (2=6-25% of disease on untreated plants),,4 (4=no disease),
CO/C=C(/C(=O)OC)c1ccccc1Oc1cc([S+]([O-])c2ccccn2)ncn1 (stereo not shown) [355 of Table I],0 (0=60-100% of disease on untreated plants),4 (4=no disease),,4 (4=no disease),0 (0=60-100% of disease on untreated plants),0 (0=60-100% of disease on untreated plants)
